{"source": "patent US20040006783A1", "about": "“Compositions and methods for modulating Rop GTPase activity in plants” (THE REGENTS THE UNIVERSITY OF CALIFORINIA, priority 2002, published 2004)", "key": {"[1]": {"system": "GUS activity in ropgap4-1 seedlings", "experiment": "GUS specific activity in ropgap4-1 seedlings", "assay_type": "in vivo, Arabidopsis thaliana"}, "ADH": {"system": "ADH", "experiment": "ADH specific activity in cell extracts of treated seedlings"}, "CA-rop2 seedlings": {"system": "CA-rop2 seedlings", "details": "for Viable Seedlings 48 h after Treatment: CA-rop2, 30 μM DPI in 3% DMSO, mean ± SE", "text": "(§1) For oxygen deprivation, plates were transferred to an airtight chamber designed to allow entry and exit of 99.998% argon under 0.4 μmols/s^1m^2 per μÅ of light."}, "WT seedlings": {"system": "WT seedlings", "details": "for Viable Seedlings 48 h after Treatment: 30 μM DPI in 3% DMSO, mean ± SE", "text": "as §1"}, "ropgap4-1 seedlings": {"system": "ropgap4-1 seedlings", "details": "for Viable Seedlings 48 h after Treatment: ropgap4-1, 30 μM DPI in 3% DMSO, mean ± SE", "text": "as §1"}, "H2O2": {"system": "H2O2", "details": "seedlings treated with caffeine and DPI for 24 h", "experimental": "Caffeine (5 mM) was incorporated into the medium of plates to which seedlings were transferred. […] Control seedlings were treated with 3% (v/v) DMSO or transferred to plates not containing caffeine.\nH2O2 levels were measured using a modification of the Terashima (1998) method (Terashima et al., Physiol. Plant. 103:295-303 (1998)). Tissue (0.5 g) was homogenized under liquid nitrogen, hydrated in 3 ml of 5% (w/v) metaphosphoric acid and centrifuged at 1,500×g at 4° C. for 20 min. The pH of the supernatant was adjusted to pH 7 with 1M Tricine, 6M NaOH. H2O2 levels were measured in a 500-μl reaction containing 200 mM MOPS-KOH (pH 7.8), 50 mM NADH in 10 mM potassium phosphate (pH 7.8). Absorbance at 340 nm was measured, 0.5 U of Streptococcusfaecalis NADH peroxidase (Sigma) was added, the sample was incubated for 1 h and absorbance at 340 nm was re-measured. H2O2 levels were determined from the decrease in absorbance in 60 min using a standard curve generated from similarly processed H2O2 standards."}, "DN-rop2 seedlings": {"system": "DN-rop2 seedlings", "details": "for Viable Seedlings 48 h after Treatment: DN-rop2, 30 μM DPI in 3% DMSO, mean ± SE", "text": "as §1"}}, "note": "Read-outs that look alike come from different tables or passages of the source."}
{"molecule": "Cn1c(=O)c2c(ncn2C)n(C)c1=O", "note": "[Caffeine]", "values": [{"measurement": "effect on GUS activity", "setting": "[1]; caffeine", "result": "rose"}, {"measurement": "caffeine promoted increase in ADH specific activity", "setting": "ADH; CA-rop2 seedlings", "result": "limited"}, {"measurement": "induction of ADH specific activity", "setting": "ADH; all four genotypes, non-stress conditions, caffeine 5 mM, 24 h", "result": "significantly higher levels than the maximal level observed in response to low oxygen"}, {"measurement": "caffeine promoted increase in ADH specific activity", "setting": "ADH; ropgap4-1 seedlings", "result": "dramatic"}]}
{"molecule": "c1ccc2c(c1)[I+]c1ccccc1-2", "note": "[DPI, diphenylene iodonium chloride]", "values": [{"measurement": "effect on rise of GUS activity in response to low oxygen and caffeine", "setting": "[1]; DPI", "result": "blocked"}, {"measurement": "Viable Seedlings 48 h after Treatment", "setting": "CA-rop2 seedlings; 0 h oxygen deprivation", "result": 100, "unit": "Percentage"}, {"measurement": "Viable Seedlings 48 h after Treatment", "setting": "CA-rop2 seedlings; 6 h oxygen deprivation", "result": 100, "unit": "Percentage"}, {"measurement": "Viable Seedlings 48 h after Treatment", "setting": "CA-rop2 seedlings; 12 h oxygen deprivation", "result": 100, "unit": "Percentage"}, {"measurement": "Viable Seedlings 48 h after Treatment", "setting": "CA-rop2 seedlings; 24 h oxygen deprivation", "result": 0, "unit": "Percentage"}, {"measurement": "effect on survival of oxygen deprivation", "setting": "CA-rop2 seedlings; CA-rop2 seedlings, in the presence of DPI", "result": "improved"}, {"measurement": "Viable Seedlings 48 h after Treatment", "setting": "WT seedlings; 0 h oxygen deprivation", "result": 100, "unit": "Percentage"}, {"measurement": "Viable Seedlings 48 h after Treatment", "setting": "WT seedlings; 6 h oxygen deprivation", "result": "80 ± 5", "unit": "Percentage"}, {"measurement": "Viable Seedlings 48 h after Treatment", "setting": "WT seedlings; 12 h oxygen deprivation", "result": 0, "unit": "Percentage"}, {"measurement": "Viable Seedlings 48 h after Treatment", "setting": "WT seedlings; 24 h oxygen deprivation", "result": 0, "unit": "Percentage"}, {"measurement": "duration of stress that WT seedlings survived", "setting": "WT seedlings; oxygen deprivation with DPI (over 36 h without DPI)", "result": "less than 12 h"}, {"measurement": "effect on ADH activity", "setting": "ADH; all four genotypes, control and low oxygen conditions, 30 μM DPI", "result": "reduced ADH activity"}, {"measurement": "effect on ADH induction", "setting": "ADH; ropgap4-1 seedlings, oxygen deprivation, DPI treatment", "result": "reduced ADH induction"}, {"measurement": "effect on caffeine-stimulated increase in ADH specific activity", "setting": "ADH; seedlings treated with caffeine and DPI for 24 h", "result": "effectively blocked"}, {"measurement": "Viable Seedlings 48 h after Treatment", "setting": "ropgap4-1 seedlings; 0 h oxygen deprivation", "result": 100, "unit": "Percentage"}, {"measurement": "Viable Seedlings 48 h after Treatment", "setting": "ropgap4-1 seedlings; 6 h oxygen deprivation", "result": 100, "unit": "Percentage"}, {"measurement": "Viable Seedlings 48 h after Treatment", "setting": "ropgap4-1 seedlings; 12 h oxygen deprivation", "result": "50 ± 5", "unit": "Percentage"}, {"measurement": "Viable Seedlings 48 h after Treatment", "setting": "ropgap4-1 seedlings; 24 h oxygen deprivation", "result": 0, "unit": "Percentage"}, {"measurement": "effect on survival of O2 deprivation", "setting": "ropgap4-1 seedlings; ropgap4-1 seedlings, DPI treatment", "result": "increased survival of O2 deprivation"}, {"measurement": "effect on caffeine-stimulated increase in H2O2", "setting": "H2O2", "result": "effectively blocked"}, {"measurement": "Viable Seedlings 48 h after Treatment", "setting": "DN-rop2 seedlings; 0 h oxygen deprivation", "result": "90 ± 3", "unit": "Percentage"}, {"measurement": "Viable Seedlings 48 h after Treatment", "setting": "DN-rop2 seedlings; 6 h oxygen deprivation", "result": "70 ± 4", "unit": "Percentage"}, {"measurement": "Viable Seedlings 48 h after Treatment", "setting": "DN-rop2 seedlings; 12 h oxygen deprivation", "result": 0, "unit": "Percentage"}, {"measurement": "Viable Seedlings 48 h after Treatment", "setting": "DN-rop2 seedlings; 24 h oxygen deprivation", "result": 0, "unit": "Percentage"}, {"measurement": "effect on survival of oxygen deprivation", "setting": "DN-rop2 seedlings; DN-rop2 seedlings, in the presence of DPI", "result": "impaired"}]}
